Reference: US8362027B2, “Iontophoretic preparation for treatment of breast cancer and/or mastitis” (Kowa Co., Ltd., priority 2005, dated 2013)
Where two headings read alike, the source gives them in different places.

Key:
[1] = not given; remark: listed apart in the source
[2] = nipple skin (corrected to nipple part only), no application of electric potential, 60 min
[3] = nipple skin (corrected to nipple part only), no application of electric potential, 120 min
[4] = nipple skin (corrected to nipple part only), no application of electric potential, 180 min
[5] = nipple skin, no application of electric potential

With `O=c1[nH]cc(F)c(=O)[nH]1` [5-fluorouracil] the “permeated amount of 5-fluorouracil” value (nipple skin (corrected to nipple part only), application of electric potential (3 V), 60 min) was 17.6 μg/cm^2, the “permeated amount of 5-fluorouracil” value (nipple skin (corrected to nipple part only), application of electric potential (3 V), 120 min) was 151.7 μg/cm^2 and the “permeated amount of 5-fluorouracil” value (nipple skin (corrected to nipple part only), application of electric potential (3 V), 180 min) was 383.3 μg/cm^2. The “permeated amount of 5-fluorouracil” value (nipple skin (corrected to nipple part only), application of electric potential (3 V), 240 min) was 676.3 μg/cm^2, the “permeated amount of 5-fluorouracil” value (nipple skin (corrected to nipple part only), application of electric potential (3 V), 300 min) was 1032.3 μg/cm^2 and the “permeated amount of 5-fluorouracil” value (nipple skin (corrected to nipple part only), application of electric potential (3 V), 360 min) was 1391.3 μg/cm^2. For the same molecule, the “permeated amount of 5-fluorouracil” value [2] was 0.0 μg/cm^2, the “permeated amount of 5-fluorouracil” value [3] was 0.2 μg/cm^2 and the “permeated amount of 5-fluorouracil” value [4] was 0.7 μg/cm^2. For the same molecule, the “permeated amount of 5-fluorouracil” value (nipple skin (corrected to nipple part only), no application of electric potential, 240 min) was 1.6 μg/cm^2, the “permeated amount of 5-fluorouracil” value (nipple skin (corrected to nipple part only), no application of electric potential, 300 min) was 3.0 μg/cm^2 and the “permeated amount of 5-fluorouracil” value (nipple skin (corrected to nipple part only), no application of electric potential, 360 min) was 5.6 μg/cm^2. The “Increase rate of permeated amount after 360 minutes with respect to normal skin without application of electric potential” value (nipple skin, application of electric potential (3 V)) was 9937.8, the “Increase rate of permeated amount after 360 minutes with respect to normal skin without application of electric potential” value [5] was 39.7 and the “increase of permeability of 5-fluorouracil” value (shortened to “increase … of 5-fluorouracil”) (nipple, compared with the permeability without application of electric potential) was “about 40 times”. The “increase … of 5-fluorouracil” value (nipple, electric potential applied (3V), vs normal skin) was “about 10000 times”, the “Increase rate of permeated amount after 360 minutes with respect to normal skin without application of electric potential” value (normal skin, application of electric potential (3 V)) was 3430.7 and the “permeated amount of 5-fluorouracil” value (normal skin, application of electric potential (3 V), 60 min, donor 1%, pH 8.5) was 1.3 μg/cm^2. The “permeated amount of 5-fluorouracil” value (normal skin, application of electric potential (3 V), 120 min, donor 1%, pH 8.5) was 11.7 μg/cm^2, the “permeated amount of 5-fluorouracil” value (normal skin, application of electric potential (3 V), 180 min, donor 1%, pH 8.5) was 44.4 μg/cm^2 and the “permeated amount of 5-fluorouracil” value (normal skin, application of electric potential (3 V), 240 min, donor 1%, pH 8.5) was 121.5 μg/cm^2. For the same molecule, the “permeated amount of 5-fluorouracil” value (normal skin, application of electric potential (3 V), 300 min, donor 1%, pH 8.5) was 264.9 μg/cm^2, the “permeated amount of 5-fluorouracil” value (normal skin, application of electric potential (3 V), 360 min, donor 1%, pH 8.5) was 480.3 μg/cm^2 and the “increase … of 5-fluorouracil” value (normal skin, electric potential applied (3V), vs without potential) was “about 3000 times”. The “permeated amount of 5-fluorouracil” value (normal skin, no application of electric potential, 60 min, donor 1%, pH 8.5) was 0.0 μg/cm^2, the “permeated amount of 5-fluorouracil” value (normal skin, no application of electric potential, 120 min, donor 1%, pH 8.5) was 0.0 μg/cm^2 and the “permeated amount of 5-fluorouracil” value (normal skin, no application of electric potential, 180 min, donor 1%, pH 8.5) was 0.0 μg/cm^2. The “permeated amount of 5-fluorouracil” value (normal skin, no application of electric potential, 240 min, donor 1%, pH 8.5) was 0.0 μg/cm^2, the “permeated amount of 5-fluorouracil” value (normal skin, no application of electric potential, 300 min, donor 1%, pH 8.5) was 0.1 μg/cm^2 and the “permeated amount of 5-fluorouracil” value (normal skin, no application of electric potential, 360 min, donor 1%, pH 8.5) was 0.1 μg/cm^2.
In the case of `O=P1(N(CCCl)CCCl)NCCCO1` (stereo not shown) [cyclophosphamide], the “permeated amount of cyclophosphamide” value ([1]; nipple skin (corrected to nipple part only), application of electric potential (0.1 mA/cm^2), 0 min) is reported as 0.0 μg/cm^2, the “permeated amount of cyclophosphamide” value ([1]; nipple skin (corrected to nipple part only), application of electric potential (0.1 mA/cm^2), 30 min) is reported as 34.3 μg/cm^2 and the “permeated amount of cyclophosphamide” value ([1]; nipple skin (corrected to nipple part only), application of electric potential (0.1 mA/cm^2), 60 min) is reported as 123.2 μg/cm^2. For the same molecule, the “permeated amount of cyclophosphamide” value ([1]; nipple skin (corrected to nipple part only), application of electric potential (0.1 mA/cm^2), 90 min) was 125.3 μg/cm^2, the “permeated amount of cyclophosphamide” value ([1]; nipple skin (corrected to nipple part only), application of electric potential (0.1 mA/cm^2), 120 min) was 121.4 μg/cm^2 and the “permeated amount of cyclophosphamide” value ([1]; nipple skin (corrected to nipple part only), application of electric potential (0.1 mA/cm^2), 150 min) was 120.4 μg/cm^2. For the same molecule, the “permeated amount of cyclophosphamide” value ([1]; nipple skin (corrected to nipple part only), application of electric potential (0.1 mA/cm^2), 180 min) was 123.1 μg/cm^2, the “permeated amount of cyclophosphamide” value ([1]; nipple skin (corrected to nipple part only), no application of electric potential, 0 min) was 0.0 μg/cm^2 and the “permeated amount of cyclophosphamide” value ([1]; nipple skin (corrected to nipple part only), no application of electric potential, 30 min) was 24.9 μg/cm^2. The “permeated amount of cyclophosphamide” value [1, 2] was 2.0 μg/cm^2, the “permeated amount of cyclophosphamide” value ([1]; nipple skin (corrected to nipple part only), no application of electric potential, 90 min) was 6.9 μg/cm^2 and the “permeated amount of cyclophosphamide” value [1, 3] was 20.2 μg/cm^2. For the same molecule, the “permeated amount of cyclophosphamide” value ([1]; nipple skin (corrected to nipple part only), no application of electric potential, 150 min) was 1.4 μg/cm^2, the “permeated amount of cyclophosphamide” value [1, 4] was 6.9 μg/cm^2 and the “Increase rate of permeated amount after 180 minutes with respect to normal skin without application of electric potential” value ([1]; nipple skin, application of electric potential (0.1 mA/cm^2)) was 7.1. The “Increase rate of permeated amount after 180 minutes with respect to normal skin without application of electric potential” value [1, 5] was 0.4, the “change of permeability of cyclophosphamide” value ([1]; nipple without electric potential, compared with normal skin) was “not enhanced” and the “increase of permeability of cyclophosphamide” value ([1]; nipple, electric potential (0.1 mA/cm^2), vs normal skin without potential) was “about 7.1 times”. The “Increase rate of permeated amount after 180 minutes with respect to normal skin without application of electric potential” value ([1]; normal skin, application of electric potential (0.1 mA/cm^2)) was 0.9, the “permeated amount of cyclophosphamide” value ([1]; normal skin, application of electric potential (0.1 mA/cm^2), 0 min, donor 25 mM, pH 3) was 0.0 μg/cm^2 and the “permeated amount of cyclophosphamide” value ([1]; normal skin, application of electric potential (0.1 mA/cm^2), 30 min, donor 25 mM, pH 3) was 13.4 μg/cm^2. The “permeated amount of cyclophosphamide” value ([1]; normal skin, application of electric potential (0.1 mA/cm^2), 60 min, donor 25 mM, pH 3) was 13.9 μg/cm^2, the “permeated amount of cyclophosphamide” value ([1]; normal skin, application of electric potential (0.1 mA/cm^2), 90 min, donor 25 mM, pH 3) was 13.7 μg/cm^2 and the “permeated amount of cyclophosphamide” value ([1]; normal skin, application of electric potential (0.1 mA/cm^2), 120 min, donor 25 mM, pH 3) was 16.2 μg/cm^2. The “permeated amount of cyclophosphamide” value ([1]; normal skin, application of electric potential (0.1 mA/cm^2), 150 min, donor 25 mM, pH 3) was 16.3 μg/cm^2, the “permeated amount of cyclophosphamide” value ([1]; normal skin, application of electric potential (0.1 mA/cm^2), 180 min, donor 25 mM, pH 3) was 16.2 μg/cm^2 and the “change of permeability of cyclophosphamide” value ([1]; normal skin, electric potential applied (0.1 mA/cm^2), vs without potential) was “hardly changed”. For the same molecule, the “permeated amount of cyclophosphamide” value ([1]; normal skin, no application of electric potential, 0 min, donor 25 mM, pH 3) was 0.0 μg/cm^2, the “permeated amount of cyclophosphamide” value ([1]; normal skin, no application of electric potential, 30 min, donor 25 mM, pH 3) was 13.3 μg/cm^2 and the “permeated amount of cyclophosphamide” value ([1]; normal skin, no application of electric potential, 60 min, donor 25 mM, pH 3) was 14.4 μg/cm^2. For the same molecule, the “permeated amount of cyclophosphamide” value ([1]; normal skin, no application of electric potential, 90 min, donor 25 mM, pH 3) was 15.0 μg/cm^2, the “permeated amount of cyclophosphamide” value ([1]; normal skin, no application of electric potential, 120 min, donor 25 mM, pH 3) was 15.5 μg/cm^2 and the “permeated amount of cyclophosphamide” value ([1]; normal skin, no application of electric potential, 150 min, donor 25 mM, pH 3) was 17.2 μg/cm^2. The “permeated amount of cyclophosphamide” value ([1]; normal skin, no application of electric potential, 180 min, donor 25 mM, pH 3) was 17.4 μg/cm^2.
